Measurements taken from patent publication US9393295B2, “Nanoparticles for use in pharmaceutical compositions” (Novartis AG, priority 2008, dated 2016).

Assay: SMIP encapsulation efficiency (UPLC of pellet and supernatant)
Assay type: physicochemical
Details: RG 502H 2% w/v nanoparticles, theoretical SMIP loading 2% w/w of PLG
Method: Nanoparticles with a theoretical SMIP loading level of 2% w/w of PLG were prepared for the SMIP encapsulation study. Both water (pH 5.5-6) and Tris EDTA buffer (pH 7-8) were used for the aqueous phases. […] Since, a basic SMIP is being employed here, Tris EDTA buffer was used for the aqueous phase, which maintained the pH of the suspension between 7 and 8.
The encapsulation efficiency was calculated as a ratio of mass of SMIP in the nanoparticles to the mass of SMIP used in the formulation. More particularly, the nanoparticle suspension was aliquoted (1 ml) into 2 vials and centrifuged at 16000 RPM for 30 minutes. The amount of SMIP in the supernatant was determined using an ultra performance liquid chromatography (Waters Acquity UPLC, Milford, Mass., USA) assay. The pellet was washed three times and the amount of SMIP in the pellet was determined after hydrolyzing the pellet with sodium hydroxide, followed by neutralization with hydrochloric acid. Encapsulation efficiency was calculated as ratio of the SMIP in the pellet to the total SMIP content of the suspension. Mass balance was achieved by hydrolyzing 1 ml of the suspension and determining the total SMIP content in 1 ml of the suspension.

encapsulation efficiency (Tris EDTA buffer (pH 7-8) as aqueous phase): greater than 90%
encapsulation efficiency (water (pH 5.5-6) as aqueous phase): 40-50%
SMILES: CCCN(C)c1nc2c(N)nc3ccccc3c2n1CC(C)(C)O [SMIP]
